From US9440951B2, “Quinolone compound” (priority 2011, dated 2016)
In brackets after ≈: the same amount, converted by molar mass. Where two headings read alike, the source gives them in different places.

Assays:
C. difficile = test: In vitro antibacterial activity: MIC by broth microdilution; type: cell-based, Clostridium difficile; conditions: Clostridioides difficile, anaerobic, tested range 0.008 to 8 μg/ml
Procedure: MICs (minimum inhibitory concentrations) were determined by the broth microdilution technique with 96-well microdilution plates. […] The plates were filled with 100 μl of reinforced clostridial medium (Oxoid; Unipath Ltd., Basingstoke, United Kingdom) per well containing the final antibiotic concentrations. The plates were thawed and preincubated for 3 hours in an anaerobic chamber (Thermal, USA) containing an atmosphere of 80% N2, 15% CO2, and 5% H2. The bacterial inocula were prepared by suspending growth from 48 hours cultures in reinforced clostridial medium. The final inoculum was approximately 1.0×10^5-6 CFU/well. The plates were incubated for 48 hours at 37° C. in the anaerobic chamber. The MIC was defined as the lowest antibiotic concentration that inhibited visible growth. Ciprofloxacin, vancomycin and metronidazole were used as a positive control.

[1] = strain C. difficile ATCC43255, 48 hours at 37° C., read-out: MIC against C. difficile ATCC43255
[2] = strain C. difficile ATCC70092, 48 hours at 37° C., read-out: MIC against C. difficile ATCC70092
[3] = strain C. difficile ATCC7000057, 48 hours at 37° C., read-out: MIC against C. difficile ATCC7000057
[4] = strain C. difficile IQCC23903, 48 hours at 37° C., read-out: MIC against C. difficile IQCC23903

Cc1c(-c2cnc3[nH]c(=O)ccc3c2)c(F)cc2c(=O)c(C(=O)O)cn(C3CC3)c12 [Compound 1-2]
MIC (C. difficile; [1]): 0.032 to 0.125 µg/mL (≈ 0.0789 to 0.308 µM)
MIC (C. difficile; [2]): 0.032 to 0.125 µg/mL (≈ 0.0789 to 0.308 µM)
MIC (C. difficile; [3]): 0.032 to 0.125 µg/mL (≈ 0.0789 to 0.308 µM)
MIC (C. difficile; [4]): 0.063 to 0.25 µg/mL (≈ 0.155 to 0.617 µM)
melting point: > 300 °C

Cc1c(-c2cc(Cl)c3nccn3c2)c(F)cc2c(=O)c(C(=O)O)cn(C3CC3)c12 [Compound 3-11]
MIC (C. difficile; [1]): 0.008 to 0.032 µg/mL (≈ 0.0194 to 0.0777 µM)
MIC (C. difficile; [2]): 0.008 to 0.032 µg/mL (≈ 0.0194 to 0.0777 µM)
MIC (C. difficile; [3]): 0.016 to 0.032 µg/mL (≈ 0.0389 to 0.0777 µM)
MIC (C. difficile; [4]): 0.008 to 0.063 µg/mL (≈ 0.0194 to 0.153 µM)
melting point: 307 to 311 °C

Cc1c(-c2cnc(N)c(C#N)c2)c(F)cc2c(=O)c(C(=O)O)cn(C3CC3)c12 [Compound 2-18]
MIC (C. difficile; [1]): 0.016 to 0.063 µg/mL (≈ 0.0423 to 0.167 µM)
MIC (C. difficile; [2]): 0.008 to 0.063 µg/mL (≈ 0.0211 to 0.167 µM)
MIC (C. difficile; [3]): 0.016 to 0.063 µg/mL (≈ 0.0423 to 0.167 µM)
MIC (C. difficile; [4]): 0.032 to 0.063 µg/mL (≈ 0.0846 to 0.167 µM)
